# Columns and labels:
# A. pallidus MHI 3391 [1] = test: FQ-BRT test system, detection of inhibitors in spiked milk samples; assay type: cell-based; settings: for test result in the FQ-BRT: spiked milk samples at concentrations at the level of the respective MRL; for detection at the detection level: incubation extended by two hours; for Detection at concentration: plates incubated for additional four hours relative to discoloration time of the negative control
# Procedure: A. pallidus MHI 3391 was used as the indicator bacteria, endospores were used with a spore count of 1.56 × 10^7 cfu/ml growth medium, the growth medium used was based on BRT basis medium comprising a brilliant black concentration of 100 mg/l, 100 µg/l MOX and 8000 µg/l 8-hydroxyquinoline, adjusted to a pH of 8.5. In the following, this test system will be referred to as FQ-BRT. The incubation of the FQ-BRT was carried out in a water bath at 61 ± 1 °C.
# The detection limits determined during the photometric and visual evaluation of test plates are shown in Figure 8 based on positive and negative control (CCβ A and CCβ B) derived from quality curves generated using the logistic regression model.
# Discoloration of the negative control on test plates of the FQ-BRT using an UHT milk negative control was observed after an incubation of 302 ± 35 min.
# A. pallidus MHI 3391 [2] = test: BRT microbial test system with additives in the growth medium, A. pallidus indicator strain; assay type: cell-based; settings: for incubated longer than corresponding control plates: additive in growth medium: 100 µg/l CIP, 100 µg/l MOX; for Concentrations detected in spiked milk samples: growth medium with 100 µg/l MOX
# Procedure: (§1) The medium was prepared with one additive each. The evaluation of an increase in sensitivity and incubation time until complete discoloration of the negative control was performed by comparison with corresponding control medium, spore suspensions from the same batches and an equivalent number of spores.
# (§2) Microbial test systems were prepared according to methods L 01.01-5 (January 2012) and L 01.00-11 (December 2002) ASU. 6.85 g BRT basis medium comprising about 1.5 g/l meat extract, about 3.0 g/l yeast extract, about 4.0 g/l casein peptone, about 6.0 g/l meat peptone, about 1.0 g/l D(+)-glucose, about 10 ml/l trimethoprim solution, and about 10 to […] dissolved in 250 ml distilled water and autoclaved.
# (§3) The medium was tempered to 65 °C. 6.25 ml of sterile-filtered brilliant black solution (4 mg/ml, in dist. aqua) and medium additives and the spore suspension was added. The volume of spore suspension to be used was calculated on the basis of the desired spore number [cfu/ml] and the determined spore number of the spore suspension. The spore suspension was adjusted to a volume corresponding to 0.4 to 6 % v/v of the growth medium by dilution in Ringer's solution or by centrifugation (6,000 × g, RT, 10 min).
# (§4) 100 µl growth medium per well was aliquoted into 96-well microtiter plates, the test system plates were solidified under the sterile bench for at least 30 min, the test system plates were sealed with adhesive foil and stored at 4 °C with the bottom surface facing upwards.
# [3] = tested on: G. stearothermophilus C953 (DSM 1550); test: BRT microbial test system with additives in the growth medium, G. stearothermophilus indicator strain; assay type: cell-based; settings: for longer incubation time until complete discoloration of the negative control: additive in growth medium: 200 µg/l CIP, 150 µg/l MOX, versus control plates
# Procedure: as §1, §2, §3, §4
# A. pallidus MHI 3390 = test: BRT test system with Ca-DPA-activated spore suspensions; assay type: cell-based; settings: Ca-DPA-activated spores versus control plates
# Procedure: (§5) 120 mM DPA stock solution was prepared in Tris-base and diluted in a 20-80 mM CaCl2 solution to obtain a Ca-DPA working solution before use. A spore suspension was adjusted to a specific spore count of 1.56 × 10^7 cfu/ml and a Ca-DPA concentration of 40 mM with Ca-DPA working solution and Ringer's solution. The spore suspension was incubated for 3 h in a thermal shaker at 55 °C and 350 rpm.
# [4] = tested on: A. thermoaerophilus MHI 3397; test: as above; assay type: cell-based; settings: Ca-DPA-activated spores versus control plates
# Procedure: as §5
# [5] = tested on: B. thermoamylovorans MHI 3373; test: as above; assay type: cell-based; settings: Ca-DPA-activated spores versus control plates without Ca-DPA activation
# Procedure: as §5
# [6] = tested on: G. stearothermophilus C953 (DSM 1550); test: as above; assay type: cell-based; settings: Ca-DPA-activated spores versus control plates
# Procedure: as §5
# A. pallidus MHI 3391 [7] = test: as above; assay type: cell-based; settings: Ca-DPA-activated spores versus control plates
# Procedure: as §5
# [8] = tested on: G. stearothermophilus C953 (DSM 1550); test: microbe, parasite or virus in culture; settings: Geobacillus stearothermophilus, DSM1550
# A. pallidus MHI 3391 [9] = test: microbe, parasite or virus in culture
# [10] = milk samples, after heating for 20 min at 120 °C; cited from earlier work
# [11] = 8-hydroxyquinoline at 250, 500, 1000, 2000 and 4000 µg/l in basic growth medium
compound,measurement,setting,value
neomycin,test result in the FQ-BRT,A. pallidus MHI 3391 [1],positive test result
"O=C(O)c1cn(C2CC2)c2cc(N3CCNCC3)c(F)cc2c1=O [CIP, ciprofloxacin]",detection at the detection level,A. pallidus MHI 3391 [1],100 µg/kg
same,Detection at concentration,A. pallidus MHI 3391 [1],50 µg/kg
same,incubated longer than corresponding control plates,A. pallidus MHI 3391 [2],17 ± 7 min
same,Concentrations detected in spiked milk samples,A. pallidus MHI 3391 [2],50 µg/kg
same,concentration detected,A. pallidus MHI 3391 [2]; growth medium with addition of 100 µg/l CIP,100 µg/kg
same,effect of addition to growth medium on detection sensitivity,"[3]; additive in growth medium: 50 µg/l CIP, 75 µg/l MOX, 100 µg/l LEV",not associated with an increased sensitivity
same,longer incubation time until complete discoloration of the negative control,[3],32 ± 10 min
same,concentration detected in spiked milk samples,"[3]; growth medium comprising 100 or 200 µg/l CIP, 100, 125 or 150 µg/l MOX, or 200 µg/l LEV",200 µg/kg
Cc1onc(-c2ccccc2)c1C(=O)N[C@@H]1C(=O)N2[C@@H]1SC(C)(C)[C@@H]2C(=O)O [oxacillin],test result in the FQ-BRT,A. pallidus MHI 3391 [1],intermediate test results
Cc1onc(-c2c(Cl)cccc2Cl)c1C(=O)N[C@@H]1C(=O)N2[C@@H]1SC(C)(C)[C@@H]2C(=O)O [dicloxacillin],test result in the FQ-BRT,A. pallidus MHI 3391 [1],intermediate test results
CC[C@H]1OC(=O)C[C@@H](O)[C@H](C)[C@@H](O[C@@H]2O[C@H](C)[C@@H](O[C@H]3C[C@@](C)(O)[C@@H](O)[C@H](C)O3)[C@H](N(C)C)[C@H]2O)[C@@H](CC=O)C[C@@H](C)C(=O)/C=C/C(C)=C/[C@@H]1CO[C@@H]1O[C@H](C)[C@@H](O)[C@@H](OC)[C@H]1OC [tylosin],test result in the FQ-BRT,A. pallidus MHI 3391 [1],positive test result
CCOc1ccc2ccccc2c1C(=O)N[C@@H]1C(=O)N2[C@@H]1SC(C)(C)[C@@H]2C(=O)O [nafcillin],test result in the FQ-BRT,A. pallidus MHI 3391 [1],intermediate test results
calcium dipicolinic acid [Ca-DPA],"increase in incubation time, mean difference",A. pallidus MHI 3390,139 ± 29 min
same,effect on incubation duration,[4],No effect on incubation duration
same,shorter incubation time,[5],23 ± 2 min
same,"increase in incubation time, mean difference",[6],139 ± 42 min
same,"increase in incubation time, mean difference",A. pallidus MHI 3391 [7],164 ± 52 min
"CN1CCN(c2c(F)cc3c(=O)c(C(=O)O)cn4c3c2OCN4C)CC1 [MAR, marbofloxacin]",detection sensitivity,A. pallidus MHI 3391 [1]; incubation extended by three hours,100 µg/kg
same,detection at the detection level,A. pallidus MHI 3391 [1],75 µg/kg
same,Concentrations detected in spiked milk samples,A. pallidus MHI 3391 [2],75 µg/kg
"COc1c(N2C[C@@H]3CCCN[C@@H]3C2)c(F)cc2c(=O)c(C(=O)O)cn(C3CC3)c12 [MOX, moxifloxacin]",incubated longer than corresponding control plates,A. pallidus MHI 3391 [2],62 ± 31 min
same,longer incubation time until complete discoloration of the negative control,[3],18 ± 0 min
"CN1C[C@@H]2C[C@H]1CN2c1cc2c(cc1F)c(=O)c(C(=O)O)cn2C1CC1 [DAN, danofloxacin]",Concentrations detected in spiked milk samples,A. pallidus MHI 3391 [2],120 µg/kg
CO/N=C(\C(=O)N[C@@H]1C(=O)N2C(C(=O)[O-])=C(C[n+]3cccc4c3CCCC4)CS[C@H]12)c1csc(N)n1 [cefquinome],test result in the FQ-BRT,A. pallidus MHI 3391 [1],intermediate test results
CCN1CCN(C(=O)N[C@@H](C(=O)N[C@@H]2C(=O)N3C(C(=O)O)=C(CSc4nnnn4C)CS[C@H]23)c2ccc(O)cc2)C(=O)C1=O [cefoperazone],test result in the FQ-BRT,A. pallidus MHI 3391 [1],intermediate test results
gentamicin,test result in the FQ-BRT,A. pallidus MHI 3391 [1],positive test result
Oc1cccc2cccnc12 [8-hydroxyquinoline],MIC,[8],4 µg/mL
same,Incubation time reduced by,A. pallidus MHI 3391 [2]; 8000 µg/l 8-hydroxyquinoline added to growth medium comprising 100 µg/l MOX,70 ± 16 min
same,improvement in detection sensitivity,A. pallidus MHI 3391 [2]; [11],no improvement in detection sensitivity
same,Incubation time reduced by,A. pallidus MHI 3391 [2]; addition of 2000 µg/l 8-hydroxyquinoline to basic growth medium,66 ± 0 min
same,Incubation time reduced by,A. pallidus MHI 3391 [2]; addition of 4000 µg/l 8-hydroxyquinoline to basic growth medium,94 ± 7 min
same,decrease in incubation time,A. pallidus MHI 3391 [2]; combination of 8000 µg/l 8-hydroxyquinoline and 100 µg/l CIP,17 ± 4 min
same,improvement in detection sensitivity,[3]; [11],no improvement in detection sensitivity
same,reduction in incubation time,[3]; addition of 8-hydroxyquinoline,not observed
same,MIC,A. pallidus MHI 3391 [9],8 µg/mL
"CCN1CCN(c2cc3c(cc2F)c(=O)c(C(=O)O)cn3C2CC2)CC1 [ENR, enrofloxacin]",detection at the detection level,A. pallidus MHI 3391 [1],100 µg/kg
same,Detection at concentration,A. pallidus MHI 3391 [1],100 µg/kg
same,degradation,[10],5%
same,Concentrations detected in spiked milk samples,A. pallidus MHI 3391 [2],100 µg/kg
